Measured values as given in US20120004160A1, “METHODS FOR IDENTIFYING AND COMPOUNDS USEFUL FOR THE DIAGNOSIS AND TREATMENT OF DISEASES INVOLVING INFLAMMATION” (Glaxo Group Ltd., priority 2009, published 2012).

System: human primary macrophages
Assay: IL-10 release measured in the same supernatant (additional cytokine measurements)
Format: cell-based
Details: effect of Ad-shRNA on IL-10 release; supernatant of on-target assay, macrophages triggered with IgG-coated beads; symbols not defined
Description: 20 μL of supernatant was used in a TNFα readout assay (Meso Scale Discovery, (MSD), Gaithersburg, Md.). The measurements were performed according to manufacturer's instructions. 20 μL of sample solution were transferred by Tecan384 head on a Tecan freedom station to wells of a 384 well TNFα MSD readout plate(Meso Scale Discovery Catalog #K211BHB-6). A calibrator curve using calibrator from MSD was created using a multichannel pipette. The calibrator curve typically started at 10 ng/mL followed by 6 steps of a 3-fold dilution with a final volume of 10 μL. Plates were sealed and incubated for 2 hours on a shaking platform (set at ˜100 rounds per minute) at room temperature. Detection antibody (1.0 μg/mL) was added to the wells (10 μL for the calibrator and 20 μL for the samples) using a repetitive multichannel. Plates were sealed and incubated overnight at room temperature on a shaking platform (set at ˜100 rounds per minute). The plates were washed 3 times with PBS+0.05% Tween-20 using a Tecan washer (TECAN type, PW384). 35 μl of 2× Read Buffer T was added to each well using a multidrop. After addition of Read Buffer, the plates were read on an MSD SI6000 reader.
For the measurements of additional cytokines, such as IL-10, the supernatants were transferred using the TECAN Freedom with a TEMO-384 head. The cytokines were measured using 384 well plates purchased at Meso Scale Discovery and the methodology used is the same as described in Example 5. Hits were prioritized based on effects on IL-10 release.
In an shRNA screen there is the possibility that the observed effects are due to off-target effects: the shRNA knock down construct has an effect on expression of a different mRNA than the intended mRNA. To exclude possible off-target effects by the knockdown constructs the following “on-target” analysis was followed. For each target, the original Ad-shRNA plus 5 extra Ad-shRNA constructs against the same target were tested in the primary screening assay. If at least two independent shRNA sequences (including original confirmed drug targetAd-shRNA) give the same effect in one donor, the probability this is due to off target shRNA effects is negligible and the effect is declared “on-target”. For the on-target assay, the methods similar to the screen and rescreen were used as described in Examples 5 and 6. The TNFα release assay was performed as per Rescreen (see Example 6) except that the negative control viruses (Luc_v13) were repropagated alongside the on-target viruses. In total, 40 targets were taken along in the on-target assay, and for 15 targets multiple shRNA came up as a hit. In addition, IL-10 release was measured in the same supernatant as described in Examples 5 and 7. Table 3 indicates the effects of the shRNAs on the IL-10 release.

IL-10 sparing, ✓:
CTTGTGCGATGCTTTGAAC: Ad-shRNA knock-down construct, KD target sequence against ATIC
CCAATGGTTACATGGCTCC: Ad-shRNA knock-down construct, KD target sequence against GRK7
AGACATGGATGGGAAAGAC: Ad-shRNA knock-down construct, KD target sequence against CBR3 (the letters are possibly those of the target site)
GGTGTCTTACTGCTGACTC: Ad-shRNA knock-down construct, target sequence against TNFRSF11A (Table 3 only, no SEQ ID NO) (the letters are possibly those of the target site)
CTTGTGTGCCAGTGGATGC: Ad-shRNA knock-down construct, KD target sequence against BRS3
ATGACCCTACAGGTTTACC: Ad-shRNA knock-down construct, KD target sequence against NEK10
CATACTGGAGCCTGTAACC: Ad-shRNA knock-down construct, KD target sequence against TNFRSF10C
GTTCTGCTGTGCATCTGCC: Ad-shRNA knock-down construct, KD target sequence against OPRL1
TATGCTGTAGGCTGCCTGC: Ad-shRNA knock-down construct, KD target sequence against PIK3CB (listed as Homo sapiens)
TGTCTACACCACTGCTGCC: Ad-shRNA knock-down construct, KD target sequence against RYR1 (the letters are possibly those of the target site; listed as Homo sapiens)
CTCAGGAAGGTCTTTCCAC: Ad-shRNA knock-down construct, KD target sequence against SNF1LK
